Assay results as given in patent publication US8097585B2, “Methods of treating inflammation by administration of heme oxygenase-1 and products of heme degradation” (priority 2002, dated 2012).
Where a name gives a salt, the structure may show the parent alone.

How the values were obtained:
[1] = tested on: DSS-colitis; assay: DSS-colitis (acute colitis) mouse model: weight loss, DAI, symptoms, crypt score; assay type: in vivo, C57BL/6 mice; details: for mean time to development of loose stool / mean time to bleeding: Kaplan-Meier; for mean time to development of loose stool: non-treated 3 days; for mean time to bleeding: non-treated 5.1 days; for colon histology (cryptal structure): day 7, light microscopy; for crypt score: day 7, non-treatment group 4.8; for disease activity index (DAI): i.p. daily (CoPPIX 5 mg/kg; biliverdin 50 μmol/kg)
Text: Animals. Pathogen-free male C57BL/6 mice, 4-6 weeks of age (Taconic; C57BL/6×129 svj strain) were used in this example. Mice were kept for one week at 4 mice/cage and fed normal laboratory chow and drinking water ad libitum prior to the experiments. All mice weighed between 22.5 g and 27.7 g at the beginning of the trial. The animal experimentation protocol was reviewed and approved by the Animal Care and Use Committees of the Beth Israel Deaconess Medical Center.
Induction of Colitis. Colitis was induced by feeding mice 5% (wt/v) dextran sodium sulfate (DSS) (MW 40,000; ICN Biomedicals Inc., OH), dissolved in distilled water, for a period of 7 days. The resulting condition was termed “DSS-colitis.” Control animals were fed distilled water ad libitum. The mortality rate in the control group and the CO-treated group was 10% (2/20) and 14% (2/14), respectively. These animals were excluded from the statistical analysis. In the other groups, no mortality occurred during 7 days of 5% DSS treatment.
Experimental Reagents and Treatment Protocol. Cobalt protoporphyrin (CoPPIX), zinc protoporphyrin (ZnPPIX, Porphyrin Products, Logan, Utah) and biliverdin dihydrochloride (ICN Biomedicals Inc., OH) were dissolved in a small amount 0.2 M NaOH, subsequently adjusted to a pH of 7.4 with 1 M HCl, and diluted in 0.9% NaCl. The stock solutions (CoPPIX and ZnPPIX=1 mg/ml, biliverdin=10 mM) were aliquoted and kept at −70° C. until used. Light exposure was limited as much as possible. CoPPIX (5 mg/kg), ZnPPIX (20 mg/kg) and biliverdin (50 μmol/kg) were administered to the mice intraperitoneally (i.p.) 24 hours before induction of DSS-colitis and daily thereafter. Desferoxamine (DFO) was prepared in imidazole buffer (50 mM imidazole, 220 mM NaCl, pH 7.4). DFO was injected subcutaneously (s.c.) twice daily (125 mg/kg) or infused i.p. (130 mg/kg/day; pumping rate 0.5 μl/hour for 8 days) by miniosmotic Alzet™ pumps (Alza Corporation, Palo Alto, Calif.) (Postma et al., Exp. Parasitol. 89(3):323-30 1998). The pumps were installed i.p. 24 hours before induction of colitis. When animals were sacrificed at day 7 of DSS treatment, the pumps were removed and evaluated to determine if DFO application had taken place.
CO gas was administrated exogenously by putting animals in a CO exposure chamber (Otterbein et al., Nat. Med. 6(4):422-8, 2000). Briefly, CO at a concentration of 1% (10,000 parts per million (ppm)) in compressed air was mixed with balanced air (21% oxygen) in a stainless steel mixing cylinder before entering the exposure chamber. CO concentrations were controlled by varying the flow rates of CO in a mixing cylinder before delivery to the chamber. Because the flow rate is primarily determined by the O2 flow, only the CO flow was changed to deliver the final concentration to the exposure chamber. A CO analyzer (Interscan Corporation, Chatsworth, Calif.) was used to measure CO levels continuously in the chamber. Mice were placed in the chamber 24 hours before the induction of the colitis and were kept in the exposure chamber during the whole period of the experiment (total of 8 days). […] Animals were removed daily from the chamber to assess weight and stool.
Evaluation of Symptoms of Colitis. All animals were evaluated clinically on a daily basis. The evaluation of each animal included a measurement of weight, hemoccult positivity and examination of stool for the presence of gross blood and stool consistency. The disease activity index (DAI) was calculated by scoring percent weight loss, intestinal bleeding (no blood; occult blood=hemoccult+; gross blood) and stool consistency (normal stool=well-formed pellets; loose stool=pasty and semiformed stools; diarrhea=liquid stool that stuck to the anus) (Table 1).
The animals were sacrificed, and the whole colon from the colo-cecal junction to the anal verge was removed and gently cleaned of stool. […]

[2] = tested on: recipient splenocytes; assay: Mixed lymphocyte culture with splenocytes of treated cardiac allograft recipients; assay type: in vivo, mice
Description: Mixed lymphocyte culture (MLC). Irradiated (25Gy, ^137Cs) DBA/2 splenocytes (5×10^5/well) were co-cultured with responders (5×10^5/well) in a 96 well round bottom plates for 3 days at 37° C., 95% air with 5% CO2. When using cells from cardiac recipients as responders, the co-culture period was 3 days without any further in vitro treatment. ^3H-thymidine (1 μCi/well) was added 16 hours before termination of cell culture, and ^3H-thymidine incorporation was measured.
Induction of HO-1 expression or biliverdin administration suppresses the T cell mediated alloimmune response in vivo. […] Recipient splenocytes harvested 5 days after cardiac transplantation were used as responder cells in an in vitro culture with DBA/2 splenocytes as feeder cells. Proliferation was measured at 72 hours (FIG. 9).

SMILES | mean time to development of loose stool [1] | mean time to bleeding [1] | difference in DAI between CoPP-treated and untreated groups ([1]; day 2) | difference in DAI between CoPP-treated and untreated groups ([1]; day 5 (maximum protection)) | colon histology (cryptal structure) [1] | crypt score [1] | disease activity index (DAI) ([1]; day 7 of DSS) | difference in DAI between CoPP-treated and untreated groups ([1]; toward the end of the 7 days) | proliferation of recipient splenocytes ([2]; harvested 5 days after cardiac transplantation, 72 hours culture with DBA/2 splenocytes, compared to controls) | mean total percent body weight loss ([1]; day 7 of DSS, i.p. daily from 24 hours before DSS (CoPPIX 5 mg/kg; biliverdin 50 μmol/kg)) | proliferation of recipient splenocytes ([2]; biliverdin 50 μmol/kg, one dose per day) | proliferation of recipient splenocytes ([2]; biliverdin 50 μmol/kg, three doses per day)
C=CC1=C(C)c2cc3[n-]c(cc4nc(cc5[n-]c(cc1n2)c(C)c5CCC(=O)[O-])C(CCC(=O)[O-])=C4C)c(C)c3C=C.[Co+2].[H+].[H+] [CoPP, Cobalt protoporphyrin] | 4.6 days | 6.9 days | 0.4 | 1.64 | remaining cryptal structures and intact epithelial surface | 2.6 | 2.8 | 1.04 | inhibited splenocyte proliferation in a significant manner | – | – | –
C=CC1=C(C)/C(=C/C2=NC(=C\c3[nH]c(/C=C4\NC(=O)C(C)=C4C=C)c(C)c3CCC(=O)O)/C(CCC(=O)O)=C2C)NC1=O [biliverdin, biliverdin dihydrochloride] | 4.4 days | 6.2 days | – | – | preserved cryptal structure | 3 | 3.3 | – | – | 16.5% | significantly suppressed | significantly suppressed
